Test results published in patent US12006328B2, “Thieno[2,3-d]pyrimidin-4-one derivatives as NMDAR modulators and uses related thereto” (Emory University, priority 2014, dated 2024).

Tests used:
Type in all cases: cell-based
[1] = target: GluN2B-containing NMDA receptors (Homo sapiens, UniProt Q13224); assay: Two-electrode voltage-clamp recordings from Xenopus laevis oocytes, GluN2B; conditions: for I10 μM/ICONTROL (mean ± SEM, %) Glu N2B: 10 μM test compound with glutamate 100 μM and glycine 30 μM, Tables 1-5; for I10 μM/ICONTROL (mean ± SEM, %) Glu N2B / maximal potentiation Glu N2B: percent of response without compound; for IC50 / EC50: glutamate 100 μM, glycine 30 μM, Hill fit; for IC50: read-out: IC50 Glu N2B; for EC50: read-out: EC50 Glu N2B
Method: (§1) Xenopus laevis oocytes were injected with cRNA encoding the NMDA receptor subunits. Two to seven days after injection, two-electrode voltage-clamp recordings were performed. Extracellular solutions were made from a solutions containing (in mM) 90 NaCl, 3 KCl, 10 HEPES, 0.5 BaCl2, 0.01 EDTA (pH 7.4 with NaOH). Voltage and current electrodes were filled with 0.3 M and 3.0 M KCl, respectively.
(§2) Potency was determined by adding increasing concentrations of test compound to saturating concentrations of glutamate (100 μM) and glycine (30 μM), and the response amplitude measured. The response in the presence of each concentration of test compound plus agonists was expressed as a percent of the response in the absence of test compound.

[2] = target: GluN2C-containing NMDA receptors (Homo sapiens, UniProt Q14957); assay: Two-electrode voltage-clamp recordings from Xenopus laevis oocytes, GluN2C; conditions: for I10 μM/ICONTROL (mean ± SEM, %) Glu N2C: 10 μM test compound with glutamate 100 μM and glycine 30 μM, Tables 1-5; for I10 μM/ICONTROL (mean ± SEM, %) Glu N2C / maximal potentiation Glu N2C: percent of response without compound; for IC50 / EC50: glutamate 100 μM, glycine 30 μM, Hill fit; for IC50: read-out: IC50 Glu N2C; for EC50: read-out: EC50 Glu N2C
Method: as §1, §2

[3] = target: GluN2D-containing NMDA receptors (Homo sapiens, UniProt O15399); assay: Two-electrode voltage-clamp recordings from Xenopus laevis oocytes, GluN2D; conditions: for I10 μM/ICONTROL (mean ± SEM, %) Glu N2D: 10 μM test compound with glutamate 100 μM and glycine 30 μM, Tables 1-5; for I10 μM/ICONTROL (mean ± SEM, %) Glu N2D / maximal potentiation Glu N2D: percent of response without compound; for IC50 / EC50: glutamate 100 μM, glycine 30 μM, Hill fit; for IC50: read-out: IC50 Glu N2D; for EC50: read-out: EC50 Glu N2D
Method: as §1, §2

[4] = Table 2, in brackets below IC50
[5] = Table 1, in brackets after EC50

Chain of GluN2D-containing NMDA receptors (O15399 28-1336, other chains not shown): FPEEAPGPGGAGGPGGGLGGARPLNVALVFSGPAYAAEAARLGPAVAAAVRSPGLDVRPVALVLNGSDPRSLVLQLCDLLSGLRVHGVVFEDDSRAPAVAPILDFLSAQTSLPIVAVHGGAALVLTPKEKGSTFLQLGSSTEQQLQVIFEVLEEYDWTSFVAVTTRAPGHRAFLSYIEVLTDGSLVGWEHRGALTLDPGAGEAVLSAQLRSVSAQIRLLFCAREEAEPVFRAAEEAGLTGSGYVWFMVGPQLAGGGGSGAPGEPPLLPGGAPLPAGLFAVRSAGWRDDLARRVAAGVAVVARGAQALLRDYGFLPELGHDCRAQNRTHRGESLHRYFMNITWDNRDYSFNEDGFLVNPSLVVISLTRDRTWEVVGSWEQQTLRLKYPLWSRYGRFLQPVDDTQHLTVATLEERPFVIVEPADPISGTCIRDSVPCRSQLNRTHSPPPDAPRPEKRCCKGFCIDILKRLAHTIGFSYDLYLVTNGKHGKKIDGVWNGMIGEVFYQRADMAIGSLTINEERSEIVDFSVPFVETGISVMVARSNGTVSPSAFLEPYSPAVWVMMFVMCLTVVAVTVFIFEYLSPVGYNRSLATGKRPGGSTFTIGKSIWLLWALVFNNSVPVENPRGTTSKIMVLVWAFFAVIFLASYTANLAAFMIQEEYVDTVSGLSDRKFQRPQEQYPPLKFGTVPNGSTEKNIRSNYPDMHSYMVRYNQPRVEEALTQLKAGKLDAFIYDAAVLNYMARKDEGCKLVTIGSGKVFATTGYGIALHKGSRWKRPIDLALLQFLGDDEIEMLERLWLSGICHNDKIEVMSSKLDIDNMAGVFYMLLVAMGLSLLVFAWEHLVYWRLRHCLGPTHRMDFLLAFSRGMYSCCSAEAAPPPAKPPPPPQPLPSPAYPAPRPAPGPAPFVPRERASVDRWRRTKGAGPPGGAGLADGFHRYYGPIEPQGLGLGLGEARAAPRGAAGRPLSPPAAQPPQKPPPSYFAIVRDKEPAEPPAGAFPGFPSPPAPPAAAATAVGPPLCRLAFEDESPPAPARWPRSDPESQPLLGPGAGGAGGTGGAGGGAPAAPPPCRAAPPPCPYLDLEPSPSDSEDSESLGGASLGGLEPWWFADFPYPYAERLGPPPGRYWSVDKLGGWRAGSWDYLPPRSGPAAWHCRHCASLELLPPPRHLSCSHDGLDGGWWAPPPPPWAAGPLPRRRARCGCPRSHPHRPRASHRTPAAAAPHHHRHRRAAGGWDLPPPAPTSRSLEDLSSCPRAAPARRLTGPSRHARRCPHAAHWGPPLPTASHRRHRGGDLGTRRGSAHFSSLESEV
Chain of GluN2B-containing NMDA receptors (Q13224 27-1484, other chains not shown): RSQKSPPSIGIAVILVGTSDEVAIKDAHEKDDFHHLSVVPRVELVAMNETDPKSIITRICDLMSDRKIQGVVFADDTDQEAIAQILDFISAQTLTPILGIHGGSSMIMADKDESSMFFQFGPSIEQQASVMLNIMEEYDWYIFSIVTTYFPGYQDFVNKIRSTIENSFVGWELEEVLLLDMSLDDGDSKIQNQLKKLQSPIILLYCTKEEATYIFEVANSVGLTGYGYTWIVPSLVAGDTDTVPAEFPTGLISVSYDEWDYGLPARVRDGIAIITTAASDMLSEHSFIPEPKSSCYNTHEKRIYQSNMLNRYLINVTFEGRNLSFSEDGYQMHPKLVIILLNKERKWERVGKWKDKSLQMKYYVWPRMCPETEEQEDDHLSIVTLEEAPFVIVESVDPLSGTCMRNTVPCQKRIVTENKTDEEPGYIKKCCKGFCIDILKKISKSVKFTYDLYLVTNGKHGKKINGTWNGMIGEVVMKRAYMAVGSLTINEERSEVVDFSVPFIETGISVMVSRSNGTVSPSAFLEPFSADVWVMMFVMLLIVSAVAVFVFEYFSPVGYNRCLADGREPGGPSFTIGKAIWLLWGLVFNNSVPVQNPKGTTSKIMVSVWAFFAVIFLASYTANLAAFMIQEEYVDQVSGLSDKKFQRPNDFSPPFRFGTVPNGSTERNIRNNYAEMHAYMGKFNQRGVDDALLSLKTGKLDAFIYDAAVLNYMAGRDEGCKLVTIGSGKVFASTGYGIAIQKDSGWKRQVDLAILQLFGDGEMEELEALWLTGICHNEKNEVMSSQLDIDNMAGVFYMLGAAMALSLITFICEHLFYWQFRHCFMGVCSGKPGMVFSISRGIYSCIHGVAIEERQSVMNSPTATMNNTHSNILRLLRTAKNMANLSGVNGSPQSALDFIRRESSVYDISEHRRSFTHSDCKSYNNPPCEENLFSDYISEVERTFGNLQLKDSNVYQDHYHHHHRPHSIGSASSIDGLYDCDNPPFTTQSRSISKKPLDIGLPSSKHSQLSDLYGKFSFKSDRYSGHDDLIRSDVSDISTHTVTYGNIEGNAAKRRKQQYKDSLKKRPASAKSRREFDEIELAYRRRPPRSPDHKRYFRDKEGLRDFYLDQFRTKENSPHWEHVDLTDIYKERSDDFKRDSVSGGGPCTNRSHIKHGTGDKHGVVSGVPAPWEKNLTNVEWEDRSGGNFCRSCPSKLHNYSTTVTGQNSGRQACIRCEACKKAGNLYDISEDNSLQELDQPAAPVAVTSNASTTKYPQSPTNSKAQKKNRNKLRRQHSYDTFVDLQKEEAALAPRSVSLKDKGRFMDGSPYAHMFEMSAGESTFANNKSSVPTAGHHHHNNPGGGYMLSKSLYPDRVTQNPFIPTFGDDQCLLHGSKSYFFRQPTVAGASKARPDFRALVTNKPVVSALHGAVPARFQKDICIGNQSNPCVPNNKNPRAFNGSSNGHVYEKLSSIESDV
Chain of GluN2C-containing NMDA receptors (Q14957 20-1233, other chains not shown): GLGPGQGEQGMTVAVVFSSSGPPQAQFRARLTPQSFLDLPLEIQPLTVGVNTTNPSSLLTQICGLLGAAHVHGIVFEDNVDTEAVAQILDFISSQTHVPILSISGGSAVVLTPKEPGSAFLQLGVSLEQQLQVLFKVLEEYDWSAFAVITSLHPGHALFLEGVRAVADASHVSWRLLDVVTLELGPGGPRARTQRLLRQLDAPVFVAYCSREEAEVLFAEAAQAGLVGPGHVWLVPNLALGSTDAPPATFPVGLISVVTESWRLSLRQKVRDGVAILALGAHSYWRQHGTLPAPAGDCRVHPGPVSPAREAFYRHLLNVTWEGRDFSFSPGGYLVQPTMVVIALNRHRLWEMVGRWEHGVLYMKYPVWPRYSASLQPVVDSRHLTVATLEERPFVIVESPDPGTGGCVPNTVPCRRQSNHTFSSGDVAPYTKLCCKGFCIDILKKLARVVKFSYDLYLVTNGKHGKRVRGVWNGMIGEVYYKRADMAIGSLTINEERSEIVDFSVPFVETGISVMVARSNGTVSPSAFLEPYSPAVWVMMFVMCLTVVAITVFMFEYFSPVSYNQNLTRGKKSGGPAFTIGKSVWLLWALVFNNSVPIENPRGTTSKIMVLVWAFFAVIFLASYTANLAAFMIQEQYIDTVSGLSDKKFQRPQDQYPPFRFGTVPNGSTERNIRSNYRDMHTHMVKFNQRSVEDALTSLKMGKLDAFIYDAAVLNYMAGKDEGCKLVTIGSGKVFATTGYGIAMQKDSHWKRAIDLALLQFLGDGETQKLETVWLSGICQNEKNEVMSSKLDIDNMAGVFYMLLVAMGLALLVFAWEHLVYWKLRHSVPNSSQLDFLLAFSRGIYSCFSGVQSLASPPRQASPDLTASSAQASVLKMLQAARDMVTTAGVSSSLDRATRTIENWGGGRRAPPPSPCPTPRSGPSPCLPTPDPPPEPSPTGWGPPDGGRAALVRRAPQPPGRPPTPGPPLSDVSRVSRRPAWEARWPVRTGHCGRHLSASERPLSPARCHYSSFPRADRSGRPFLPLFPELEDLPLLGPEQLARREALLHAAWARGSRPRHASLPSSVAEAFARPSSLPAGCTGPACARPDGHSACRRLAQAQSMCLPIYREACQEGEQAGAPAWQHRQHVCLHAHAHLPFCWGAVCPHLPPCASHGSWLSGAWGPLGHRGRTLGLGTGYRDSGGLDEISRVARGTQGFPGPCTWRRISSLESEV

Row | SMILES | I10 μM/ICONTROL (mean ± SEM, %) Glu N2B [1] | I10 μM/ICONTROL (mean ± SEM, %) Glu N2C [2] | I10 μM/ICONTROL (mean ± SEM, %) Glu N2D [3] | also measured
1 | Cc1sc2ncn(CC(=O)O)c(=O)c2c1-c1cccc(Cl)c1 [1 / 3-Cl—Ph / Me / OH] | 93 ± 1.2% | 93 ± 1.4% | 89 ± 1.4% | 
2 | Cc1sc2ncn(CC(=O)Oc3ccccc3)c(=O)c2c1-c1cccc(Cl)c1 [1 / 3-Cl—Ph / Me / OPh] | 96 ± 2.6% | 110 ± 5.9% | 89 ± 1.6% | 
3 | CCSC(=O)Cn1cnc2sc(C)c(-c3cccc(Cl)c3)c2c1=O [1 / 3-Cl—Ph / Me / SEt] | 95 ± 0.9% | 95 ± 2.8% | 90 ± 1.3% | 
4 | Cc1sc2ncn(CC(=O)SC(C)(C)C)c(=O)c2c1-c1cccc(Cl)c1 [1 / 3-Cl—Ph / Me / StBu] | 92 ± 4.6% | 87 ± 4.0% | 73 ± 2.6% | 
5 | Cc1sc2ncn(CC(=O)c3cccs3)c(=O)c2c1-c1cccc(I)c1 [1 / 3-I—Ph / Me / 2-thiophene] | 129 ± 4.5% | 180 ± 10.7% | 177 ± 7.0% | IC50 ([1]; Table 2): 7.7 µM; maximal potentiation Glu N2B [1, 4]: (147) %; IC50 ([2]; Table 2): 9.3 µM; maximal potentiation Glu N2C [2, 4]: (255) %; IC50 ([3]; Table 2): 11 µM; maximal potentiation Glu N2D [3, 4]: (262) %
6 | COc1cccc(C(=O)Cn2cnc3sc(C)c(-c4cccc(I)c4)c3c2=O)c1 [1 / 3-I—Ph / Me / 3-OMe—Ph] | 107 ± 3.0% | 107 ± 4.9% | 99 ± 4.3% | 
7 | COc1ccc(C(=O)Cn2cnc3sc(C)c(-c4cccc(I)c4)c3c2=O)cc1 [1 / 3-I—Ph / Me / 4-OMe—Ph] | 84 ± 5.2% | 94 ± 1.94% | 94 ± 1.1% | 
8 | Cc1sc2ncn(CC(=O)OC(C)(C)C)c(=O)c2c1-c1cccc(I)c1 [1 / 3-I—Ph / Me / OtBu] | 87 ± 3.9% | 101 ± 6.8% | 94 ± 4.3% | 
9 | Cc1sc2ncn(CC(=O)c3ccccc3)c(=O)c2c1-c1cccc(I)c1 [1 / 3-I—Ph / Me / Ph] | 139 ± 3.9% | 161 ± 10.9% | 133 ± 3.1% | IC50 ([1]; Table 2): 7.9 µM; maximal potentiation Glu N2B [1, 4]: (169) %; IC50 ([2]; Table 2): 15 µM; maximal potentiation Glu N2C [2, 4]: (273) %; IC50 ([3]; Table 2): 41 µM; maximal potentiation Glu N2D [3, 4]: (305) %
10 | Cc1sc2ncn(CC(=O)N(C)C)c(=O)c2c1-c1ccc(Br)cc1 [1 / 4-Br—Ph / Me / —N(Me)2] | 92 ± 1.7% | 109 ± 3.1% | 105 ± 1.8% | 
11 | CCOC(=O)CNC(=O)Cn1cnc2sc(C)c(-c3ccc(Br)cc3)c2c1=O [1 / 4-Br—Ph / Me / —NHCH2COOEt] | 96 ± 2.1% | 104 ± 2.5% | 104 ± 0.6% | 
12 | Cc1sc2ncn(CC(=O)NCC(=O)O)c(=O)c2c1-c1ccc(Cl)cc1 [1 / 4-Cl—Ph / Me / —NHCH2COOH] | 87 ± 1.3% | 105 ± 3.7% | 93 ± 1.8% | 
13 | Cc1sc2ncn(CC(=O)N3CCC[C@H]3C(=O)O)c(=O)c2c1-c1ccc(Cl)cc1 [1 / 4-Cl—Ph / Me / —Nproline (S)] | 89 ± 1.7% | 104 ± 2.3% | 97 ± 1.9% | 
14 | Cc1sc2ncn(CC(=O)N3CCCC3)c(=O)c2c1-c1ccc(Cl)cc1 [1 / 4-Cl—Ph / Me / —Npyrrolidine] |  |  |  | IC50 ([1]; Table 2): 11 µM; maximal potentiation Glu N2B [1, 4]: (223) %; IC50 ([2]; Table 2): 15 µM; maximal potentiation Glu N2C [2, 4]: (347) %; IC50 ([3]; Table 2): 23 µM; maximal potentiation Glu N2D [3, 4]: (381) %
15 | CCOC(=O)CCn1cnc2sc(C)c(-c3cccc(Cl)c3)c2c1=O [2 / 3-Cl—Ph / Me / OEt] | 107 ± 2.3% | 91 ± 2.5% | 97 ± 1.6% | 
16 | Cc1sc2ncn(CCC(=O)O)c(=O)c2c1-c1cccc(Cl)c1 [2 / 3-Cl—Ph / Me / OH] | 99 ± 0.6% | 89 ± 6.2% | 97 ± 1.1% | 
17 | Cc1sc2ncn(CCC(=O)Oc3ccccc3)c(=O)c2c1-c1cccc(Cl)c1 [2 / 3-Cl—Ph / Me / OPh] | 104 ± 3.6% | 91 ± 1.1% | 88 ± 2.4% | 
18 | Cc1sc2ncn(CCC(=O)N3CCCC3)c(=O)c2c1-c1cccc(Cl)c1 [2 / 3-Cl—Ph / Me / —Npyrrolidine] | 95 ± 1.7% | 99 ± 5.0% | 90 ± 1.7% | 
19 | O=C(Cn1cnc2sc3c(c2c1=O)CCCC3)c1ccc(Cl)cc1Cl [2,4-Cl] | 91 ± 3.6% | 106 ± 4.4% | 97 ± 1.8% | 
20 | COc1ccc(C(=O)Cn2cnc3sc4c(c3c2=O)CCCC4)c(OC)c1 [2,4-OMe] | 95 ± 1.8% | 94 ± 1.4% | 90 ± 0.7% | 
21 | Cc1sc2ncn(CC(=O)N3CCCC3)c(=O)c2c1-c1ccccc1C(F)(F)F [2-CF3—Ph / Me] | 93 ± 2.0% | 95 ± 2.1% | 94 ± 1.4% | 
22 | Cc1sc2ncn(CC(=O)N3CCCC3)c(=O)c2c1-c1ccc2c(c1)CCC2 [3,4-(CH2)3—Ph / Me] | 176 ± 6.2% | 185 ± 11.4% | 165 ± 3.4% | EC50 ([1]; Table 1): 11.5 µM; maximal potentiation Glu N2B [1, 5]: 275%; EC50 ([2]; Table 1): 26 µM; maximal potentiation Glu N2C [2, 5]: 475%; EC50 ([3]; Table 1): 48 µM; maximal potentiation Glu N2D [3, 5]: 580%
23 | Cc1sc2ncn(CC(=O)N3CCCC3)c(=O)c2c1-c1ccc(Br)c(Br)c1 [3,4-Br—Ph / Me] | 188 ± 9.3% | 281 ± 17.7% | 292 ± 13.7% | EC50 ([1]; Table 1): 5.2 µM; maximal potentiation Glu N2B [1, 5]: 223%; EC50 ([2]; Table 1): 13 µM; maximal potentiation Glu N2C [2, 5]: 561%; EC50 ([3]; Table 1): 30 µM; maximal potentiation Glu N2D [3, 5]: 1205%
24 | Cc1ccc(-c2c(C)sc3ncn(CC(=O)N4CCCC4)c(=O)c23)cc1C [3,4-Me—Ph / Me] |  |  |  | EC50 ([1]; Table 1): 7.9 µM; maximal potentiation Glu N2B [1, 5]: 192%; EC50 ([2]; Table 1): 27 µM; maximal potentiation Glu N2C [2, 5]: 267%; EC50 ([3]; Table 1): 18 µM; maximal potentiation Glu N2D [3, 5]: 229%
25 | Cc1sc2ncn(CC(=O)N3CCCC3)c(=O)c2c1-c1cc(Br)cc(Br)c1 [3,5-Br—Ph / Me] | 156 ± 5.2% | 195 ± 6.9% | 230 ± 13.5% | EC50 ([1]; Table 1): 1.08 µM; maximal potentiation Glu N2B [1, 5]: 143%; EC50 ([2]; Table 1): 2.2 µM; maximal potentiation Glu N2C [2, 5]: 195%; EC50 ([3]; Table 1): 3.86 µM; maximal potentiation Glu N2D [3, 5]: 202%
26 | Cc1sc2ncn(CC(=O)N3CCCC3)c(=O)c2c1-c1cc(C(F)(F)F)cc(C(F)(F)F)c1 [3,5-CF3—Ph / Me] | 101 ± 4.5% | 115 ± 5.5% | 103 ± 1.1% | 
27 | Cc1sc2ncn(CC(=O)N3CCCC3)c(=O)c2c1-c1cc(F)cc(F)c1 [3,5-F—Ph / Me] | 107 ± 2.7% | 114 ± 0.9% | 116 ± 4.4% | EC50 ([1]; Table 1): 96 µM; maximal potentiation Glu N2B [1, 5]: 229%; EC50 ([2]; Table 1): 132 µM; maximal potentiation Glu N2C [2, 5]: 458%; EC50 ([3]; Table 1): 204 µM; maximal potentiation Glu N2D [3, 5]: 748%
28 | Cc1sc2ncn(CC(=O)N3CCCC3)c(=O)c2c1-c1cc(I)cc(I)c1 [3,5-I—Ph / Me] | 152 ± 8.8% | 167 ± 9.6% | 151 ± 6.3% | EC50 ([1]; Table 1): 20 µM; maximal potentiation Glu N2B [1, 5]: 259%; EC50 ([2]; Table 1): 35 µM; maximal potentiation Glu N2C [2, 5]: 493%; EC50 ([3]; Table 1): 32 µM; maximal potentiation Glu N2D [3, 5]: 432%
29 | Cc1sc2ncn(CC(=O)N3CCCC3)c(=O)c2c1-c1cccc(-n2cncn2)c1 [3-1,2,4 triazolyl-Ph / Me] | 110 ± 2.6% | 113 ± 5.8% | 108 ± 6.2% | EC50 ([1]; Table 1): 293 µM; maximal potentiation Glu N2B [1, 5]: 402%; EC50 ([2]; Table 1): 44 µM; maximal potentiation Glu N2C [2, 5]: 308%; EC50 ([3]; Table 1): 108 µM; maximal potentiation Glu N2D [3, 5]: 239%
